# Measured values from US12428406B2 (PMV Pharmaceuticals, Inc., priority 2019, dated 2025).
# Biological target: T1, p53 Y220C (Homo sapiens, UniProt P04637, Y220C)
# T1 construct: The recombinant protein was a truncation mutant containing only amino acids 94-312 of p53; made in house; host or cells: E. coli
# Assay: In vitro DNA binding activity assay (HTRF / TR-FRET): stabilization of p53 Y220C and increase of its DNA binding activity
# Type: biochemical
# Conditions: recombinant His-tagged p53 Y220C DNA binding domain (aa 94-312), biotin-labeled consensus DNA, incubated at 27° C. or 29° C. for 60 min
# In short: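 Compound effect on DNA binding of recombinant His-p53 Y220C (E. coli) to biotin-labeled consensus DNA, expressed as SC150, the concentration giving 50% increase versus untreated. Serial 3-fold DMSO dilutions of 4.5 mM stocks; room-temperature steps of 15 then 20 min.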
# T1 sequence (P04637 94-312, change not shown): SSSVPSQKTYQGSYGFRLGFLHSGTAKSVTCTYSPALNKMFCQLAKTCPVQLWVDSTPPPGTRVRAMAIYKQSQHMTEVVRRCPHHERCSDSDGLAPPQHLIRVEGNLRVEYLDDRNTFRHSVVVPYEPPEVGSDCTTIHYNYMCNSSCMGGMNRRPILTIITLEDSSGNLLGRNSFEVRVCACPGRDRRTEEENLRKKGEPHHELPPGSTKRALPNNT
row,SC150 (concentration of the compound required to increase the DNA binding activity by 50%),Structure (SMILES)
1,+ (+ = 0 μM ≤ SC150 < 0.05 μM),"COc1cc(S(C)(=O)=O)ccc1NCC#Cc1cc2c(N[C@H]3CCN(CCO)C[C@H]3F)cccc2n1CC(F)(F)F [Compound 854A, 2-[(3R,4S)-3-fluoro-4-[(2-{3-[(4-methanesulfonyl-2-methoxyphenyl)amino]prop-1-yn-1-yl}-1-(2,2,2-trifluoroethyl)-1H-indol-4-yl)amino]piperidin-1-yl]ethan-1-ol]"
2,+ (+ = 0 μM ≤ SC150 < 0.05 μM),"COc1cc(S(=O)(=O)N(C)CCO)ccc1NCC#Cc1cc2c(NC3CCN(CC(O)CO)CC3)cccc2n1CC(F)(F)F (stereo not drawn) [Compound 553A, 4-{[3-(4-{[1-(2,3-dihydroxypropyl)piperidin-4-yl]amino}-1-(2,2,2-trifluoroethyl)-1H-indol-2-yl)prop-2-yn-1-yl]amino}-N-(2-hydroxyethyl)-3-methoxy-N-methylbenzene-1-sulfonamide]"
3,+ (+ = 0 μM ≤ SC150 < 0.05 μM),"COc1cc(S(=O)(=O)Nc2cc(C)on2)ccc1NCC#Cc1cc2c(NC3CCOCC3)cccc2n1CC(F)(F)F [Compound 994A, 3-methoxy-N-(5-methyl-1,2-oxazol-3-yl)-4-[(3-{4-[(oxan-4-yl)amino]-1-(2,2,2-trifluoroethyl)-1H-indol-2-yl}prop-2-yn-1-yl)amino]benzene-1-sulfonamide]"
4,+ (+ = 0 μM ≤ SC150 < 0.05 μM),"CS(=O)(=O)c1ccc(NCC#Cc2cc3c(N[C@H]4CC[C@H](N5CC6(COC6)C5)CC4)cccc3n2CC(F)(F)F)c(Cl)c1 [Compound 289A, 2-{3-[(2-chloro-4-methanesulfonyl-phenyl)amino]prop-1-yn-1-yl}-N-[(1R,4R)-4-{2-oxa-6-azaspiro[3.3]heptan-6-yl}cyclo-hexyl]-1-(2,2,2-trifluo-roethyl)-1H-indol-4-amine]"
5,+ (+ = 0 μM ≤ SC150 < 0.05 μM),"CN(C)[C@H]1CC[C@@H](Nc2cccc3c2cc(C#CCNc2ccc(S(C)(=O)=O)cc2OCCO)n3CC(F)(F)F)CC1 [Compound 88A, 2-(5-methanesulfonyl-2-{[3-(4-{[(1S,4S)-4-(dimethylamino)cyclohexyl]amino}-1-(2,2,2-trifluoro-ethyl)-1H-indol-2-yl)prop-2-yn-1-yl]amino}phenoxy)ethan-1-ol]"
6,+ (+ = 0 μM ≤ SC150 < 0.05 μM),"CC(=O)N1CCC(Nc2cccc3c2cc(C#CCNc2ccc(S(C)(=O)=O)cc2OCC#N)n3CC(F)(F)F)CC1 [Compound 729A, 2-{2-[(3-{4-[(1-acetylpiperidin-4-yl)amino]-1-(2,2,2-trifluoroethyl)-1H-indol-2-yl}prop-2-yn-1-yl)amino]-5-methanesulfonylphenoxy}acetonitrile]"
7,+ (+ = 0 μM ≤ SC150 < 0.05 μM),"CCN1CCC(Nc2cccc3c2cc(C#CCNc2ccc(S(N)(=O)=O)cc2OC)n3CC(F)(F)F)CC1 [Compound 538A, 4-[(3-{4-[(1-ethylpiperidin-4-yl)amino]-1-(2,2,2-trifluoroethyl)-1H-indol-2-yl}prop-2-yn-1-yl)amino]-3-methoxybenzene-1-sulfonamide]"
8,+ (+ = 0 μM ≤ SC150 < 0.05 μM),"COC(=O)c1ccc(NCC#Cc2cc3c(N[C@H]4CCN(C)C[C@H]4F)cccc3n2CC(F)(F)F)c(OC)c1 (racemic) [Compound 778A, rac-methyl 4-{[3-(4-{[(3R,4S)-3-fluoro-1-methylpiperidin-4-yl]amino}-1-(2,2,2-trifluoroethyl)-1H-indol-2-yl)prop-2-yn-1-yl]amino}-3-methoxybenzoate]"
9,+ (+ = 0 μM ≤ SC150 < 0.05 μM),"CCC(=O)NS(=O)(=O)c1ccc(NCC#Cc2cc3c(N[C@H]4CC[C@H](N(C)C)CC4)cccc3n2CC(F)(F)F)c(OC)c1 [Compound 85A, N-(3-methoxy-4-{[3-(4-{[(1R,4R)-4-(dimethylamino)cyclohexyl]amino}-1-(2,2,2-trifluoroethyl)-1H-indol-2-yl)prop-2-yn-1-yl]amino}benzenesulfonyl)propanamide]"
